# Laboratory results from ChEMBL document CHEMBL2375352, “Spirostanoids with 1,4-dien-3-one or 3β,7α-diol-5,6-ene moieties from Solanum violaceum” (Bioorg Med Chem Lett, 2013).
# What was measured:
# [1] = Cytotoxicity against human Hep3B cells; type: functional, cell-based, Hep 3B2
# [2] = tested on: MCF7; experiment: Cytotoxicity against human MCF7 cells; type: functional, cell-based
# [3] = tested on: MDA-MB-231; experiment: Cytotoxicity against human MDA-MB-231 cells; type: functional, cell-based
# [4] = tested on: HepG2; experiment: Cytotoxicity against human HepG2 cells; type: functional, cell-based
# [5] = tested on: A549; experiment: Cytotoxicity against human A549 cells; type: functional, cell-based
Compound,IC50 [1] [µg/mL],IC50 [2] [µg/mL],IC50 [3] [µg/mL],IC50 [4] [µg/mL],IC50 [5] [µg/mL]
CC[C@H](/C=C/[C@@H](C)[C@H]1CC[C@H]2[C@@H]3C(=O)C=C4C[C@@H](O)CC[C@]4(C)[C@H]3CC[C@]12C)C(C)C,> 20,> 20,> 20,> 20,> 20
CC[C@H](CC[C@@H](C)[C@H]1CC[C@H]2[C@@H]3C(=O)C=C4C[C@@H](O)CC[C@]4(C)[C@H]3CC[C@]12C)C(C)C,> 20,> 20,> 20,> 20,> 20
C[C@H]1CC[C@@]2(OC1)O[C@H]1C[C@H]3[C@@H]4CC=C5C[C@@H](O)CC[C@]5(C)[C@H]4CC[C@]3(C)[C@H]1[C@@H]2C,> 20,> 20,> 20,> 20,> 20
CC(C)[C@@H](C)/C=C/[C@@H](C)[C@H]1CC[C@@H]2[C@]1(C)CC=C1[C@]23C=C[C@]2(C[C@@H](O)CC[C@]12C)OO3,15.5,9.18,7.32,7.73,10.4
C[C@@H]1CC[C@@]2(OC1)O[C@H]1C[C@H]3[C@@H]4CCC5=CC(=O)CC[C@]5(C)[C@H]4CC[C@]3(C)[C@H]1[C@@H]2C [DIOSGENONE],> 20,> 20,> 20,13.4,> 20
C[C@@H]1CC[C@@]2(OC1)O[C@H]1C[C@H]3[C@@H]4CC=C5C[C@@H](O)CC[C@]5(C)[C@H]4CC[C@]3(C)[C@H]1[C@@H]2C [DISOGENIN],> 20,> 20,> 20,> 20,> 20
COc1cccc2c1C(=O)c1c(O)c3c(c(O)c1C2=O)C[C@@](O)(C(=O)CO)C[C@@H]3O[C@H]1C[C@H](N)[C@H](O)[C@H](C)O1 [DOXORUBICIN],0.24,0.29,0.38,0.4,
CC(C)[C@@H](C)/C=C/[C@@H](C)[C@H]1CC[C@@H]2[C@]1(C)CC[C@H]1[C@]23C=C[C@]2(C[C@@H](O)CC[C@]12C)OO3 [ERGOSTEROL PEROXIDE],16.5,13.4,16.7,15.3,14.3
COc1cc2ccc(=O)oc2cc1O [SCOPOLETIN],> 13.2,17.1,> 20,> 20,> 20
COc1cc([C@H]2OC[C@H]3[C@@H]2CO[C@@H]3c2cc(OC)c(O)c(OC)c2)cc(OC)c1O [SYRINGARESINOL],15.7,> 20,> 20,> 20,> 20
